± gives the expanded uncertainty stated by the source.
Assay: mn = molality of the nth substance listed, in mol/kg
Details: 100 kPa, Liquid, Vibrating tube method

N[C@@H](Cc1c[nH]cn1)C(=O)O [L-histidine] + O
mass density [kg/m3]
Details | 278.65 K | 279.15 K | 279.65 K | 280.15 K | 280.65 K | 281.15 K | 281.65 K | 282.15 K | 282.65 K | 283.15 K
m1 = 0.0078 | 1000.43 ± 0.12 | 1000.42 ± 0.12 | 1000.4 ± 0.12 | 1000.38 ± 0.12 | 1000.36 ± 0.12 | 1000.33 ± 0.12 | 1000.29 ± 0.12 | 1000.26 ± 0.12 | 1000.22 ± 0.12 | 1000.18 ± 0.12
m1 = 0.0176 | 1001 ± 0.12 | 1000.98 ± 0.12 | 1000.97 ± 0.12 | 1000.94 ± 0.12 | 1000.92 ± 0.12 | 1000.89 ± 0.12 | 1000.85 ± 0.12 | 1000.82 ± 0.12 | 1000.78 ± 0.12 | 1000.73 ± 0.12
m1 = 0.0269 | 1001.6 ± 0.12 | 1001.58 ± 0.12 | 1001.56 ± 0.12 | 1001.53 ± 0.12 | 1001.51 ± 0.12 | 1001.48 ± 0.12 | 1001.44 ± 0.12 | 1001.41 ± 0.12 | 1001.36 ± 0.12 | 1001.32 ± 0.12
m1 = 0.048 | 1002.82 ± 0.12 | 1002.8 ± 0.12 | 1002.78 ± 0.12 | 1002.75 ± 0.12 | 1002.73 ± 0.12 | 1002.69 ± 0.12 | 1002.65 ± 0.12 | 1002.62 ± 0.12 | 1002.57 ± 0.12 | 1002.53 ± 0.12
m1 = 0.0636 | 1003.84 ± 0.12 | 1003.82 ± 0.12 | 1003.79 ± 0.12 | 1003.76 ± 0.12 | 1003.73 ± 0.12 | 1003.7 ± 0.12 | 1003.66 ± 0.12 | 1003.62 ± 0.12 | 1003.58 ± 0.12 | 1003.53 ± 0.12
m1 = 0.0856 | 1005.07 ± 0.12 | 1005.05 ± 0.12 | 1005.02 ± 0.12 | 1004.99 ± 0.12 | 1004.96 ± 0.12 | 1004.92 ± 0.12 | 1004.88 ± 0.12 | 1004.84 ± 0.12 | 1004.79 ± 0.12 | 1004.74 ± 0.12
m1 = 0.0982 | 1005.82 ± 0.12 | 1005.8 ± 0.12 | 1005.77 ± 0.12 | 1005.74 ± 0.12 | 1005.71 ± 0.12 | 1005.67 ± 0.12 | 1005.63 ± 0.12 | 1005.59 ± 0.12 | 1005.54 ± 0.12 | 1005.49 ± 0.12
m1 = 0.115 | 1006.7 ± 0.12 | 1006.68 ± 0.12 | 1006.65 ± 0.12 | 1006.62 ± 0.12 | 1006.58 ± 0.12 | 1006.54 ± 0.12 | 1006.5 ± 0.12 | 1006.46 ± 0.12 | 1006.41 ± 0.12 | 1006.36 ± 0.12
m1 = 0.1268 | 1007.49 ± 0.12 | 1007.46 ± 0.12 | 1007.43 ± 0.12 | 1007.39 ± 0.12 | 1007.36 ± 0.12 | 1007.32 ± 0.12 | 1007.27 ± 0.12 | 1007.23 ± 0.12 | 1007.18 ± 0.12 | 1007.13 ± 0.12
m1 = 0.138 | 1008.16 ± 0.12 | 1008.13 ± 0.12 | 1008.1 ± 0.12 | 1008.06 ± 0.12 | 1008.03 ± 0.12 | 1007.99 ± 0.12 | 1007.94 ± 0.12 | 1007.89 ± 0.12 | 1007.84 ± 0.12 | 1007.79 ± 0.12
m1 = 0.1586 | 1009.47 ± 0.12 | 1009.44 ± 0.12 | 1009.41 ± 0.12 | 1009.37 ± 0.12 | 1009.33 ± 0.12 | 1009.28 ± 0.12 | 1009.24 ± 0.12 | 1009.19 ± 0.12 | 1009.13 ± 0.12 | 1009.08 ± 0.12
